Results reported in patent US20140371243A1, “MEDICAL USE OF A DPP-4 INHIBITOR” (Boehringer Ingelheim International GmbH, priority 2013, published 2014).

Legend:
[1] = Plasma levels of linagliptin in mice fed linagliptin in chow; assay type: in vivo, C57BL/6 mice; details: 0.083 g/kg chow, corresponding to oral dose of 3 mg/kg/d
From the text: (§1) 6-week-old male C57BL/6 mice were purchased and were housed in a polycarbonate cage with a wooden chip mat on the floor; water was available ad libitum. C57BL/6 mice were divided into 2 groups: control (n=14) and linagliptin-treated (n=14). At age 7 weeks, control mice were fed normal chow (22.6% protein, 53.8% carbohydrate, 5.6% fat, 6.6% mineral and vitamin mixture, and 3.3% fiber; total: 356 kcal/100 g) with vehicle; linagliptin-treated mice were fed normal chow with linagliptin (0.083 g/kg chow, which results in mean plasma levels of 50-150 nM, corresponding to an oral dose of 3 mg/kg/d). The animal room was kept on a 12-h light/dark cycle at a constant temperature (22±1° C.) with relative humidity of 55±5% throughout the experimental period. Endothelial denudation injuries were induced in the femoral artery at age 8 weeks, followed by evaluation of neointimal formation at age 12 weeks.

[2] = Body weight and blood glucose in non-diabetic mice; assay type: in vivo, C57BL/6 mice; details: linagliptin vs. control, 0.083 g/kg chow (3 mg/kg/d oral)
From the text: as §1

[3] = tested on: femoral arteries after vascular injury; assay: Guidewire-induced femoral artery endothelial denudation injury, neointima formation (tissue analysis, elastic staining); assay type: in vivo, C57BL/6 mice; details: non-diabetic mice, femoral artery guide wire injury, 4 weeks after injury, 0.083 g/kg chow (3 mg/kg/d oral)
From the text: as §1, with “weeks. Mouse femoral artery endothelial denudation injury was induced in C57BL/6 mice in the control and linagliptin groups at age 8 weeks, as previously described. […] Serial sections of 1.5 mm proximal region from the incision site for the wire insertion were evaluated by staining with Elastica van Gieson stain kit (4033-4037, Muto Pure Chemicals Co., Tokyo, Japan) to visualize the internal elastic lamina.” for “weeks.”

[4] = tested on: rat aortic SMC; assay: FBS-induced vascular smooth muscle cell proliferation, BrdU incorporation assay; assay type: cell-based; details: in vitro, 10% FBS for 24 h, 12-h pre-treatment of linagliptin
Description: Rat aortic vascular SMC (VSMC) and mouse aortic VSMC were serum-deprived in Dulbecco's modified Eagle's medium containing 0.1% fetal bovine serum (FBS) for at least 24 h and subjected to mitogenic stimulation with 10% FBS for 24 h with or without 12-h pre-treatment of linagliptin at the indicated concentration BrdU Assay. To evaluate cell proliferation of rat aortic SMC, the bromodeoxyuridine (BrdU) incorporation assay was performed using the Cell Proliferation enzyme-linked immunosorbent assay (ELISA) kit (1647229, Roche Applied Science, Mannheim, Germany) as previously described.

[5] = tested on: active GLP-1; assay: Serum active GLP-1 concentration (ELISA) in non-diabetic mice; assay type: in vivo, C57BL/6 mice; details: linagliptin vs. control, 0.083 g/kg chow (3 mg/kg/d oral)
From the text: as §1

With `CC#CCn1c(N2CCC[C@@H](N)C2)nc2c1c(=O)n(Cc1nc(C)c3ccccc3n1)c(=O)n2C` [Linagliptin, 1-[(4-methyl-quinazolin-2-yl)methyl]-3-methyl-7-(2-butyn-1-yl)-8-(3-(R)-amino-piperidin-1-yl)-xanthine] the mean plasma levels [1] was 50 to 150 nM, the blood glucose [2] was “does not change” and the body weight [2] was “does not change”. For the same compound, the “neointima formation after vascular injury (intima area, media area, intima/media ratio)” value [3] was “attenuates”, the “FBS-induced vascular smooth muscle (SMC) proliferation (BrdU assay)” value [4] was “reduces” and the “serum active GLP-1 concentration (ELISA)” value [5] was “increases”.
